# Data as given in patent publication US8758781B2, “Tissue scaffolds derived from forestomach extracellular matrix” (Mesynthes Ltd., priority 2008, dated 2014).
# Key:
# S. aureus = experiment: Anti-microbial zone of inhibition on Mueller-Hinton agar; type: cell-based; parameters: key: ‘+++’ indicates a bioactivity comparable to the positive control; ‘−’ indicates no bioactivity; details: positive control, solution on sterile filter paper disc
# Method: Plates of Mueller-Hinton agar were prepared and streaked with 100 μL of 10^8 S. aureus and left to dry for 5-10 minutes. Using sterile technique, discs were transferred to the plates and the plates incubated for 24 hours at 35° C. After 24 hours, plates were digitally imaged and the anti-microbial zone of inhibition around each of the discs was scored relative to the positive control.
# [1] = test system: FHV-1: Felid herpesvirus type 1 (Herpesviridae); experiment: Viral inactivation in scaled-down manufacturing process; details: 0.3% PAA/5% Ethanol in PBS
# Method: (§1) A study was undertaken to examine viral inactivation during the STOF processes and PAA treatment using three model viruses.
# (§2) The level of viral inactivation was tested using a scaled-down manufacturing process. This involved spiking high-titre viral stocks of each of the three model viruses into samples representing two different stages of the manufacturing process, and subjecting these spiked samples to a treatment analogous to the corresponding manufacturing step. The level of virus inactivation during each treatment was determined by comparing the viral titres recovered from the spiked samples after each treatment, with viral recovery from untreated samples.
# (§3) The model viruses were chosen to include viruses with different physio-chemical characteristics, such as the presence or absence of envelope, type of nucleic acid genome (DNA or RNA) and survival in the environment/resistance to disinfection (Table 22). The amount of infectious virus present in samples was determined by end-point titration and viral titres were expressed as tissue culture infective dose, 50% (TCID50).
# [2] = test system: BEV: Bovine enterovirus (Picornaviridae); experiment: as above; details: 0.3% PAA/5% Ethanol in PBS
# Method: as §1, §2, §3
# [3] = test system: PI-3: Parainfluenza virus type 3 (Paramyxoviridae); details: 0.3% PAA/5% Ethanol in PBS
# Method: as §1, §2, §3
# PC12 cells = experiment: PC12 cell differentiation by growth factor released from laminates; type: cell-based; details: growth factor solution control (50 ng/disc); 48 hours
# Method: Specifically, a collagen gel was prepared as described in Example 3. Once formed the gel was spiked with either human recombinant FGF2 or NGF. Sterile FM scaffold sheets were cut to 8 mm discs, and growth factor spiked collagen gel (10 μL) was applied to one surface. A second FM scaffold disc was applied to the collagen layer to create a laminate sandwich (i.e., FM scaffold/bioactive collagen polymer/FM scaffold). The bioactive FM scaffold laminates were dehydrated at 25° C. for 2 hours to yield a bonded laminate. The FM laminates were produced with FGF2 or NGF at either 0, 250 or 500 ng/disc. The bioactive FM scaffolds were incubated at 37° C. for 24 hours in DMEM (1 mL) to extract the bound growth factor prior to application to a cell monolayer. PC12 cells were seeded onto 24-well plates at 20 k cells/well in DMEM (1 mL) and incubated for 24 hours at 37° C. Media was removed from the cells and replaced with DMEM (1 mL) that had been incubated with the bioactive FM scaffold laminates. Positive control cells were treated with a solution of either FGF2 or NGF at 50 ng/mL final concentration. Cells were incubated for 48 hours. […] Total cells were counted per frame, as well as the total number of cell processes per frame. […] Growth factor stimulated cell differentiation was expressed as the number of cell processes per cell per frame. Results are expressed as Table 19. […]
molecule,measurement,setting,value
C[C@H]1c2cccc(O)c2C(=O)C2=C(O)[C@]3(O)C(=O)C(C(N)=O)=C(O)[C@@H](N(C)C)[C@@H]3[C@@H](O)[C@@H]21 [Doxycycline],Antibacterial score,S. aureus; 30 μg/disc,+++
"CC(=O)OO [PAA, peracetic acid]",PAA Inactivation,[1],≧2.6 log TCID50
same,PAA Inactivation,[2],7.3 log TCID50
same,PAA Inactivation,[3],≧2.3 log TCID50
poly-L-lysine,Antibacterial score,S. aureus; 5 μg/disc,+++
"rhFGF2: human recombinant FGF2 solution, positive control",Relative cell response (cell processes per cell per frame),PC12 cells,0.72 ± 0.02
"rhNGF: NGF solution, positive control",Relative cell response (cell processes per cell per frame),PC12 cells,0.73 ± 0.01
